# From patent US8722670B2, “Selective NR2B antagonists” (Bristol-Myers Squibb Company, priority 2011, dated 2014)
# Molecular target: T1, hNR2B (Homo sapiens, UniProt Q05586+Q13224)
# T1 construct: expressed in transfected cells; host or cells: Xenopus laevis oocytes, cRNA-injected
# Assay: Electrophysiology NMDA receptor experiments: two electrode voltage-clamp in Xenopus laevis oocytes, hNR2B IC50
# Format: cell-based
# Conditions: hNR2B activity class, 50 μM glutamate, 30 μM glycine, read-out: Activity
# T1 sequence (Q13224 27-1484, other chains not shown): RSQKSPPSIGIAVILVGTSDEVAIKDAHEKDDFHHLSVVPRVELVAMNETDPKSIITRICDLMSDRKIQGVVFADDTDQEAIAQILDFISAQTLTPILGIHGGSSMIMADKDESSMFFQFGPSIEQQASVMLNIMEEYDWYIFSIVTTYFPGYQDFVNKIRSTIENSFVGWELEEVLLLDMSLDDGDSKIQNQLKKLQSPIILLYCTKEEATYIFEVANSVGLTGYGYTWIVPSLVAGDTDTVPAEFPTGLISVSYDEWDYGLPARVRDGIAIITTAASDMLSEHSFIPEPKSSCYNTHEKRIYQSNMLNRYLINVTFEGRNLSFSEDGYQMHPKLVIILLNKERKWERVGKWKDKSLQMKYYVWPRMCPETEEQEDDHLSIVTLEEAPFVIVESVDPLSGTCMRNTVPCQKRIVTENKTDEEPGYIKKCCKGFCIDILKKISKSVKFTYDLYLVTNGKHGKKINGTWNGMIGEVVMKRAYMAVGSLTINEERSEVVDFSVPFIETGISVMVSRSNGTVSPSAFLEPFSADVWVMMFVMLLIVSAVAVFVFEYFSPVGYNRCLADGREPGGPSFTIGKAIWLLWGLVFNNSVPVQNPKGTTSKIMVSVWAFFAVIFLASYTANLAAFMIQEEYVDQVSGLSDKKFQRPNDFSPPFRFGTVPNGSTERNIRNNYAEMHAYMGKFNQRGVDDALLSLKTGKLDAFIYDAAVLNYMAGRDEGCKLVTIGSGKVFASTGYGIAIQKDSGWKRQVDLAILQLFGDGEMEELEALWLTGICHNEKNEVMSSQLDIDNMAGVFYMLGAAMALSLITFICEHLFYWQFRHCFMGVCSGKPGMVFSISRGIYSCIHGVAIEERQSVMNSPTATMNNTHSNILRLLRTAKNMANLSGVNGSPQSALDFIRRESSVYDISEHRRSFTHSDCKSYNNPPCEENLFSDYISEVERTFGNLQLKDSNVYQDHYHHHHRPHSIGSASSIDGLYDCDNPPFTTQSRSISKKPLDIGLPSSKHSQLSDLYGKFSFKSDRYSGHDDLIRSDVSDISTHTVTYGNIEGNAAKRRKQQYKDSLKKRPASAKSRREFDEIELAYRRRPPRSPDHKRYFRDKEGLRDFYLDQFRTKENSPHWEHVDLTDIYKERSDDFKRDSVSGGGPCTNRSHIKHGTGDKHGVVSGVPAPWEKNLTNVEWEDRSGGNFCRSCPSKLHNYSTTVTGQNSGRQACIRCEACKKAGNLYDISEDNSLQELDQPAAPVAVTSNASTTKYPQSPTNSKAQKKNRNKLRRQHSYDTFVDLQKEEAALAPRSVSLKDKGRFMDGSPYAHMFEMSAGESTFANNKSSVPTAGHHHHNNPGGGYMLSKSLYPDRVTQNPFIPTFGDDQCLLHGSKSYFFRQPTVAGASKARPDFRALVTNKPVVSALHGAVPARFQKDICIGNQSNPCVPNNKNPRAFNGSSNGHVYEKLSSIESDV
row,Structure (SMILES),IC50
1,FC(F)(F)Oc1ccc(Nc2noc(CCc3ccc4[nH]nc(C(F)(F)F)c4c3)n2)cc1 [Example 195],> 10000 nM
2,FC(F)Oc1ccc(Nc2noc(CCc3ccc4[nH]nc(C(F)(F)F)c4c3)n2)cc1Cl [Example 197],> 10000 nM
3,Clc1ccc(Nc2noc(CCc3ccc4[nH]ncc4c3)n2)cc1Cl [Example 198],1000 to 10000 nM
4,O=C1CCc2cc(CCc3nc(Nc4ccc(Cl)c(Cl)c4)no3)ccc2N1 [Example 199],> 10000 nM
5,Clc1ccc(Nc2noc(CCCc3ccc4[nH]ncc4c3)n2)cc1Cl [Example 202],> 10000 nM
6,FC(F)(F)c1ccc(Nc2noc(CCCc3ccc4[nH]ncc4c3)n2)cc1 [Example 203],> 10000 nM
7,O=c1ccc2cc(CCc3nc(Nc4ccc(Cl)c(Cl)c4)no3)ccc2[nH]1 [Example 204],201 to 1000 nM
8,FC(F)Oc1ccc(Nc2noc(CCc3ccc4[nH]ncc4c3)n2)cc1Cl [Example 205],> 10000 nM
9,FC(F)Oc1ccc(Nc2noc(CCCc3ccc4[nH]ncc4c3)n2)cc1Cl [Example 206],1000 to 10000 nM
10,FC(F)Oc1ccc(Nc2noc(CCNc3ncnc4[nH]ncc34)n2)cc1Cl [Example 207],< 200 nM
11,Fc1cc(Nc2noc(CCc3ccc4[nH]ncc4c3)n2)ccc1OC(F)F [Example 210],< 200 nM
12,CCc1ccc(Nc2noc(CCc3ccc4[nH]ncc4c3)n2)cc1 [Example 211],< 200 nM
13,CCc1ccc(Nc2noc(CCc3ccc4[nH]ncc4c3)n2)cc1Cl [Example 212],201 to 1000 nM
14,COc1ccc(Nc2noc(CCc3ccc4[nH]ncc4c3)n2)cc1C [Example 213],1000 to 10000 nM
15,Cc1cc(Nc2noc(CCc3ccc4[nH]ncc4c3)n2)ccc1OC(F)F [Example 214],201 to 1000 nM
16,CCc1ccc(Nc2noc(CCc3ccc4[nH]ncc4c3)n2)cc1F [Example 215],< 200 nM
17,Fc1ccc(Nc2noc(CCc3ccc4[nH]ncc4c3)n2)cc1C(F)F [Example 216],201 to 1000 nM
18,Oc1ccc(CCc2nc(Nc3ccc(OC(F)F)c(F)c3)no2)cc1 [Example 219],< 200 nM
19,Oc1ccc(CCc2nc(Nc3ccc(C(F)(F)F)cc3)no2)cc1 [Example 223],201 to 1000 nM
20,Oc1ccc(CCc2nc(Nc3ccc(OC(F)(F)F)cc3)no2)cc1 [Example 224],201 to 1000 nM
21,Oc1ccc(CCc2nc(Nc3ccc(Cl)cc3)no2)cc1 [Example 225],201 to 1000 nM
22,Oc1ccc(CCc2nc(Nc3ccc(OC(F)F)cc3)no2)cc1 [Example 226],201 to 1000 nM
23,Fc1cc(Nc2noc(CCc3ccc4cn[nH]c4c3)n2)ccc1Cl [Example 227],> 10000 nM

row,Structure (SMILES),IC50
1,Fc1cc(Nc2noc(CCc3cccc4[nH]ncc34)n2)ccc1Cl [Example 228],1000 to 10000 nM
2,FC(F)Oc1ccc(Nc2noc(CCc3ccc4cn[nH]c4c3)n2)cc1Cl [Example 230],< 200 nM
3,FC(F)Oc1ccc(Nc2noc(CCc3cccc4[nH]ncc34)n2)cc1Cl [Example 231],1000 to 10000 nM
4,Oc1ccc(CCc2nc(Nc3ccc(Cl)c(Cl)c3)no2)cc1 [Example 232],1000 to 10000 nM
5,Fc1cc(Nc2noc(CCc3cnc4[nH]ncc4c3)n2)ccc1OC(F)F [Example 233],< 200 nM
6,FC(F)Oc1ccc(Nc2noc(CCc3ccc4[nH]nc(Cl)c4c3)n2)cc1Cl [Example 234],1000 to 10000 nM
7,Cc1cc(Nc2noc(C3CC3c3ccc4[nH]ncc4c3)n2)ccc1OC(F)F (centres unmarked) [Example 236],201 to 1000 nM
8,Fc1cc(Nc2noc(C3CC3c3ccc4[nH]ncc4c3)n2)ccc1OC(F)F (centres unmarked) [Example 238],< 200 nM
9,O=C1CCc2cc(OCc3nnc(Nc4ccc(C(F)(F)F)cc4)s3)ccc2N1 [Example 242],< 200 nM
10,O=c1ccc2cc(OCc3nnc(Nc4ccc(Cl)c(Cl)c4)s3)ccc2[nH]1 [Example 243],< 200 nM
11,O=c1ccc2cc(OCc3nnc(Nc4ccc(Cl)cc4)s3)ccc2[nH]1 [Example 244],< 200 nM
12,O=c1ccc2cc(OCc3nnc(Nc4ccc(OC(F)(F)F)cc4)s3)ccc2[nH]1 [Example 245],< 200 nM
13,O=C1CCc2cc(OCc3nnc(Nc4ccc(OC(F)(F)F)cc4)s3)ccc2N1 [Example 247],< 200 nM
14,O=C1CCc2cc(OCc3nnc(NCc4ccc(Cl)c(Cl)c4)s3)ccc2N1 [Example 248],201 to 1000 nM
15,O=c1ccc2cc(OCc3nnc(NCc4ccc(Cl)c(Cl)c4)s3)ccc2[nH]1 [Example 249],201 to 1000 nM
16,O=C1CCc2cc(OCc3nnc(Nc4ccc(Cl)cc4)s3)ccc2N1 [Example 250],201 to 1000 nM
17,O=c1ccc2cc(OCc3cc(Nc4ccc(OC(F)F)c(Cl)c4)no3)ccc2[nH]1 [Example 255],< 200 nM
18,O=c1ccc2cc(OCc3cc(Nc4ccc(Cl)c(F)c4)no3)ccc2[nH]1 [Example 256],< 200 nM
19,FC(F)Oc1ccc(Nc2cc(COc3ccc4[nH]ncc4c3)on2)cc1Cl [Example 258],< 200 nM
20,O=c1ccc2cc(OCc3cc(Nc4ccc(OC(F)F)cc4)no3)ccc2[nH]1 [Example 260],< 200 nM
21,COc1ccc(Nc2cc(COc3ccc4[nH]c(=O)ccc4c3)on2)cc1Cl [Example 261],< 200 nM
22,Cc1ccc(Nc2cc(COc3ccc4[nH]c(=O)ccc4c3)on2)cc1C [Example 262],1000 to 10000 nM
23,O=c1ccc2cc(OCc3cc(Nc4ccc(Cl)c(C(F)(F)F)c4)no3)ccc2[nH]1 [Example 263],1000 to 10000 nM

# Same assay, conditions: voltage clamp -40 mV, 50 μM glutamate, 30 μM glycine, read-out: hNR2B IC50
row,Structure (SMILES),IC50
1,Oc1ccc(CCc2nc(NCc3ccc(Cl)cc3)no2)cc1 [Example 200],320 nM
2,FC(F)Oc1ccc(Nc2noc(CCc3ccc4[nH]ncc4c3)n2)cc1 [Example 201],470 nM
3,O=c1ccc2cc(CCc3nc(Nc4ccc(OC(F)F)c(Cl)c4)no3)ccc2[nH]1 [Example 208],11 nM
4,Cc1ccc(Nc2noc(CCc3ccc4[nH]ncc4c3)n2)cc1F [Example 209],19 nM
5,"Cc1cc(Nc2noc(C3CC3c3ccc4[nH]c(=O)ccc4c3)n2)ccc1OC(F)F (centres unmarked) [Example 235, 6-(2-(3-((4-(difluoromethoxy)-3-methylphenyl)amino)-1,2,4-oxadiazol-5-yl)cyclopropyl)quinolin-2(1H)-one]",44 nM
6,"O=C1CCc2cc(OCc3noc(Nc4ccc(Cl)c(Cl)c4)n3)ccc2N1 [Example 239, 6-((5-((3,4-dichlorophenyl)amino)-1,2,4-oxadiazol-3-yl)methoxy)-3,4-dihydroquinolin-2(1H)-one]",3600 nM
7,O=C1CCc2cc(OCc3nnc(Nc4ccc(Cl)c(Cl)c4)s3)ccc2N1 [Example 240],266 nM
8,O=c1ccc2cc(OCc3nnc(Nc4ccc(C(F)(F)F)cc4)s3)ccc2[nH]1 [Example 241],30 nM
9,O=c1ccc2cc(OCc3nnc(NCc4ccc(Cl)nc4)s3)ccc2[nH]1 [Example 251],9400 nM
10,"O=C1CCc2cc(OCc3csc(Nc4ccc(Cl)c(Cl)c4)n3)ccc2N1 [Example 252, 6-((2-(3,4-dichlorophenylamino)thiazol-4-yl)methoxy)-3,4-dihydroquinolin-2(1H)-one]",24000 nM
11,"O=c1ccc2cc(OCc3cc(NCc4ccc(OC(F)F)cc4)no3)ccc2[nH]1 [Example 253, 6-((3-(4-(difluoromethoxy)benzylamino)isoxazol-5-yl)methoxy)quinolin-2(1H)-one]",321 nM
12,O=c1ccc2cc(OCc3cc(Nc4ccc(Cl)c(Cl)c4)no3)ccc2[nH]1 [Example 254],193 nM
13,O=c1ccc2cc(OCc3cc(Nc4ccc(Cl)c(F)c4)no3)ccc2[nH]1 [Example 257],10 nM
